# From patent publication US11584747B2, “Substituted pyridopyrimidinonyl compounds useful as T cell activators” (BRISTOL-MYERS SQUIBB COMPANY, priority 2019, dated 2023)
# Read-outs that look alike come from different tables or passages of the source.
# Columns and labels:
# [1] = target: human DGKα (Homo sapiens (Human), UniProt P23743); experiment: DGKα LIPGLO assay (extruded liposome substrate, ADP-Glo luminescence); format: biochemical
# [2] = target: human DGKζ (Homo sapiens (Human), UniProt Q13574); experiment: DGKζ LIPGLO assay (extruded liposome substrate, ADP-Glo luminescence); format: biochemical
# Sequence of human DGKζ (Q13574 other isoform, or with tags, fused parts or gaps): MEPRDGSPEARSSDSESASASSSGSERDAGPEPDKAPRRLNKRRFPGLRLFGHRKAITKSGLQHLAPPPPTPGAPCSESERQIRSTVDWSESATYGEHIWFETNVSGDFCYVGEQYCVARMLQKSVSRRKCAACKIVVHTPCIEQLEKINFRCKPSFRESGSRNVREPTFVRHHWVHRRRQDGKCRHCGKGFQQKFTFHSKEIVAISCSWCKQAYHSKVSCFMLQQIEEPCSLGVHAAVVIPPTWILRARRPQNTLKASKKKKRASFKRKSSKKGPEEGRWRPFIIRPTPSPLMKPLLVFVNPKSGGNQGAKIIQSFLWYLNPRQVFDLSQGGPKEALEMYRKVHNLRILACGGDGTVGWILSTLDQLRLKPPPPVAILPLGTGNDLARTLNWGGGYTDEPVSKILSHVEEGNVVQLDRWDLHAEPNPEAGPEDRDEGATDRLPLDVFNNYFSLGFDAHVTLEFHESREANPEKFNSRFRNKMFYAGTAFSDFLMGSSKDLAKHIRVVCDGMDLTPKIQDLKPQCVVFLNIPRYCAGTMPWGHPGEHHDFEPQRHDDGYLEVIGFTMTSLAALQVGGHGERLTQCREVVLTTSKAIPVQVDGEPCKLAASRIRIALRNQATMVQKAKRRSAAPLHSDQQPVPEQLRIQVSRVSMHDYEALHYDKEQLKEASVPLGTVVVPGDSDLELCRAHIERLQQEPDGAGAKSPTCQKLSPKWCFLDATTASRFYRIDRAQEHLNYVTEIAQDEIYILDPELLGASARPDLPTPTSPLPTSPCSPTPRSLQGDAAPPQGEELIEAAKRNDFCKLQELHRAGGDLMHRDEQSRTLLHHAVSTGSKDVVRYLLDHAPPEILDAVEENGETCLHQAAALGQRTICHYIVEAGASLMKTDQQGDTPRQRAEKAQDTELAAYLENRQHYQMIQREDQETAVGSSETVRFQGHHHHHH
# [3] = test system: human venous whole blood (IFN-γ); experiment: Human whole blood IFN-γ assay; format: cell-based
# Protocol: Human venous whole blood (22.5 μL per well), obtained from healthy donors, was pre-treated with compounds for one hour at 37° C. in a humidified 95% air/5% CO2 incubator. The blood was stimulated with 2.5 μL anti-human CD3 and anti-CD28 mAb at a final concentration of 1 μg/mL each for 24 hours at 37° C. IFN-γ in the supernatants was measured using AlphLISA kit (Cat #AL217).
# [4] = liposome assay, read-out: DGK alpha LIPGLO IC50
# [5] = liposome assay, read-out: DGK zeta LIPGLO IC50
# [6] = whole blood, normalized to 3 μM reference compound as 100% activation, read-out: IFN-γ Whole Blood Normalized EC50
# [7] = Homo sapiens, whole blood, normalized to 3 μM reference compound as 100% activation, read-out: IFN-γ Whole Blood Normalized EC50
# [8] = liposome (LIPGLO) assay, read-out: DGK alpha (liposome assay) IC50
# [9] = liposome (LIPGLO) assay, read-out: DGK zeta (liposome assay) IC50
# Sequence of human DGKα (P23743 whole entry, looked up): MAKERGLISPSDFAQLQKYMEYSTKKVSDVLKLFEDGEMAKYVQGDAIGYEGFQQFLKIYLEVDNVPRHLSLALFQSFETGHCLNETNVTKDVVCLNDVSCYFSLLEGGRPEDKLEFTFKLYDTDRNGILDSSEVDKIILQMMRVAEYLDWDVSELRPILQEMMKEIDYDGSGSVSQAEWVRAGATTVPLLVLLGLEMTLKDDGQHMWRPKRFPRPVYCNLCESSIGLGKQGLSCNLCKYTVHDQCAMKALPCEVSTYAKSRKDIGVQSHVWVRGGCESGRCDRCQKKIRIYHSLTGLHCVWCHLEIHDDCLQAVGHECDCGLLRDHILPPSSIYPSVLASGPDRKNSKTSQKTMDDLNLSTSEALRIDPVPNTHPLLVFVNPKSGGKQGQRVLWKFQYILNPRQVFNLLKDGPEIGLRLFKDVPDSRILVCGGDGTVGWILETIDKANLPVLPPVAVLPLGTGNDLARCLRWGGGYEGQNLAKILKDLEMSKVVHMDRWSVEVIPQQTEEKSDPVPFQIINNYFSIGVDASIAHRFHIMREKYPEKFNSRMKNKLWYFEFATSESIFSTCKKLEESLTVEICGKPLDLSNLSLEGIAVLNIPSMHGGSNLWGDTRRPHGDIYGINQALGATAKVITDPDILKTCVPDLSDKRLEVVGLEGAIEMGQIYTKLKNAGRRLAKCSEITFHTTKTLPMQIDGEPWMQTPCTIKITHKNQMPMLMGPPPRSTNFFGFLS
Structure (SMILES),"IC50 [1, 4]","IC50 [2, 5]","IC50 [1, 8]","IC50 [2, 9]","EC50 ([3]; human whole blood, anti-CD3 plus anti-CD28 stimulation, 24 hours, read-out: IFN-γ Whole Blood EC50)","EC50 ([3]; Homo sapiens, 24 h, human whole blood, anti-CD3 plus anti-CD28 stimulation, 24 hours, read-out: IFN-γ Whole Blood EC50)","EC50 [3, 6]","EC50 [3, 7]"
"CC[C@@H]1CN(c2nc(=O)n(C)c3ccc(C#N)nc23)[C@@H](C)CN1C(c1ccc(F)cc1)c1ccccn1 (single isomer, unassigned) [Example 87]",28 nM,310 nM,,,,,440 nM,
"C[C@@H]1CN(c2nc(=O)n(C)c3ccc(C#N)nc23)[C@@H](C)CN1C(c1ccc(F)cc1)c1ccc(C#N)cc1 (stereo partly drawn) [Example 375, 4-((2S,5R)-4-((4-cyanophenyl)(4-fluorophenyl)methyl)-2,5-dimethylpiperazin-1-yl)-1-methyl-2-oxo-1,2-dihydropyrido[3,2-d]pyrimidine-6-carbonitrile]",,,1390 nM,6050 nM,2160 nM,,,
"CC(c1ccc(C2CC2)cc1)N1C[C@H](C)N(c2nc(=O)n(C)c3ccc(C#N)nc23)C[C@H]1C (single isomer, unassigned) [Example 3]",190 nM,110 nM,,,,,31 nM,
"C[C@H]1CN(C(c2ccc(F)cc2)c2ccc(C(F)(F)F)cn2)[C@H](CO)CN1c1nc(=O)n(C)c2ccc(C#N)nc12 (single isomer, unassigned) [Example 181]",4920 nM,12400 nM,,,,,730 nM,
"CC[C@@H]1CN(c2nc(=O)n(C)c3ccc(C#N)nc23)[C@@H](C)CN1C(C)c1ccc(OC(C)C)cc1 (single isomer, unassigned) [Example 52]",230 nM,52 nM,,,,,53 nM,
"CC[C@H]1CN(C(c2ccc(F)cc2)c2ccon2)[C@H](CC)CN1c1nc(=O)n(C)c2ccc(C#N)nc12 (single isomer, unassigned) [Example 34]",620 nM,310 nM,,,,,420 nM,
"CC[C@@H]1CN(c2nc(=O)n(C)c3ccc(C#N)nc23)[C@@H](CC)CN1Cc1ccc(OC(F)(F)F)cc1F [Example 27, 4-((2S,5R)-2,5-diethyl-4-(2-fluoro-4-(trifluoromethoxy)benzyl)piperazin-1-yl)-1-methyl-2-oxo-1,2-dihydropyrido[3,2-d]pyrimidine-6-carbonitrile]",2 nM,230 nM,,,,,,620 nM
"CC(c1ccc2c(c1)OC(F)(F)O2)N1C[C@H](C)N(c2nc(=O)n(C)c3ccc(C#N)nc23)C[C@H]1C (single isomer, unassigned) [Example 166]",5390 nM,330 nM,,,,,500 nM,
"C[C@@H]1CN(c2nc(=O)n(C)c3ccc(C#N)nc23)[C@@H](C)CN1C(c1ccc(Cl)cc1)c1ccc(Cl)cc1 [Example 373, 4-((2 S, 5R)-4-(bis(4-chlorophenyl)methyl)-2,5-dimethylpiperazin-1-yl)-1-methyl-2-oxo-1,2-dihydropyrido[3,2-d]pyrimidine-6-carbonitrile]",,,860 nM,2550 nM,,170 nM,,
"CC[C@H]1CN(C(C)c2ccc(OC)cc2)[C@H](CC)CN1c1nc(=O)n(C)c2ccc(C#N)nc12 (single isomer, unassigned) [Example 17]",320 nM,2140 nM,,,,,,2890 nM
"CC[C@@H]1CN(c2nc(=O)n(C)c3ccc(C#N)nc23)[C@@H](C)CN1C(c1ccc(F)cc1)c1cccc(C(F)(F)F)n1 (single isomer, unassigned) [Example 65]",1190 nM,100 nM,,,,,360 nM,
"CC[C@H]1CN(C(C)c2ccc(OC(F)(F)F)c(F)c2)[C@H](CC)CN1c1nc(=O)n(C)c2ccc(C#N)nc12 (single isomer, unassigned) [Example 31]",1700 nM,960 nM,,,,,270 nM,
"CC(c1ccc(C2CC2)cc1F)N1C[C@H](C)N(c2nc(=O)n(C)c3ccc(C#N)nc23)C[C@H]1C (single isomer, unassigned) [Example 169]",4620 nM,2180 nM,,,,,1330 nM,
"CC[C@@H]1CN(c2nc(=O)n(C)c3ccc(C#N)nc23)[C@@H](C)CN1C(c1ccc(F)cc1)c1ccon1 (single isomer, unassigned) [Example 74]",250 nM,960 nM,,,,,430 nM,
"CC[C@@H]1CN(c2nc(=O)n(C)c3ccc(C#N)nc23)[C@@H](CC)CN1Cc1ccc2c(c1)OC(F)(F)O2 [Example 13, 4-((2S,5R)-4-((2,2-difluorobenzo[d][1,3]dioxol-5-yl)methyl)-2,5-diethylpiperazin-1-yl)-1-methyl-2-oxo-1,2-dihydropyrido[3,2-d]pyrimidine-6-carbonitrile]",700 nM,230 nM,,,,,,2120 nM
"CC[C@@H]1CN(c2nc(=O)n(C)c3ccc(C#N)nc23)[C@@H](C)CN1C(C)c1ccc(C#N)cc1 (single isomer, unassigned) [Example 61]",52 nM,380 nM,,,,,4500 nM,
"CC[C@H]1CN(C(C)c2ccc(OC(C)C)cc2)[C@H](CC)CN1c1nc(=O)n(C)c2ccc(C#N)nc12 (single isomer, unassigned) [Example 19]",4050 nM,3100 nM,,,,,,2060 nM

# The remaining compounds from weak to strong by IC50 [1, 4], led by results:
"IC50 [1, 4]","IC50 [2, 5]","IC50 [1, 8]","IC50 [2, 9]","EC50 ([3]; human whole blood, anti-CD3 plus anti-CD28 stimulation, 24 hours, read-out: IFN-γ Whole Blood EC50)","EC50 ([3]; Homo sapiens, 24 h, human whole blood, anti-CD3 plus anti-CD28 stimulation, 24 hours, read-out: IFN-γ Whole Blood EC50)",Structure (SMILES),"EC50 [3, 6]","EC50 [3, 7]"
25600 nM,2880 nM,,,,,"CC(c1cc(F)c(F)c(F)c1)N1C[C@H](C)N(c2nc(=O)n(C)c3ccc(C#N)nc23)C[C@H]1C (single isomer, unassigned) [Example 139]",,20000 nM
4500 nM,1410 nM,,,,,"C[C@@H]1CN(c2nc(=O)n(C)c3ccc(C#N)nc23)[C@@H](C)CN1Cc1ccc2c(c1)OC(F)(F)O2 [Example 135, 4-((2S,5R)-4-((2,2-difluorobenzo[d][1,3]dioxol-5-yl)methyl)-2,5-dimethylpiperazin-1-yl)-1-methyl-2-oxo-1,2-dihydropyrido[3,2-d]pyrimidine-6-carbonitrile]",,10700 nM
1630 nM,480 nM,,,,,"CC[C@@H]1CN(c2nc(=O)n(C)c3ccc(C#N)nc23)[C@@H](C)CN1C(C)c1ccc(OCC2CC2)cc1 (single isomer, unassigned) [Example 68]",,1900 nM
1610 nM,330 nM,,,,,"C[C@@H]1CN(c2nc(=O)n(C)c3ccc(C#N)nc23)[C@@H](C)CN1C(c1ccc(F)cc1)c1csc(C(F)(F)F)n1 (single isomer, unassigned) [Example 170]",96 nM,
960 nM,930 nM,,,,,"CC[C@@H]1CN(c2nc(=O)n(C)c3ccc(C#N)nc23)[C@@H](C)CN1C(C)c1ccc(OC)cc1 (single isomer, unassigned) [Example 57]",1900 nM,
690 nM,1980 nM,,,,,"CCC(c1ccc(OC(F)(F)F)cc1F)N1C[C@H](C)N(c2nc(=O)n(C)c3ccc(C#N)nc23)C[C@H]1C (single isomer, unassigned) [Example 153]",2310 nM,
660 nM,570 nM,,,,,"C[C@@H]1CN(c2nc(=O)n(C)c3ccc(C#N)nc23)[C@@H](C)CN1C(c1ccc(F)cc1)c1nc(C2CC2)cs1 (single isomer, unassigned) [Example 158]",1580 nM,
530 nM,240 nM,,,,,"C[C@@H]1CN(c2nc(=O)n(C)c3ccc(C#N)nc23)[C@@H](C)CN1Cc1ccc(F)c(F)c1 [Example 133, 4-((2 S,5R)-4-(3,4-difluorobenzyl)-2,5-dimethylpiperazin-1-yl)-1-methyl-2-oxo-1,2-dihydropyrido[3,2-d]pyrimidine-6-carbonitrile]",,710 nM
460 nM,120 nM,,,,,"CC[C@@H]1CN(c2nc(=O)n(C)c3ccc(C#N)nc23)[C@@H](C)CN1C(C)c1ccc(C2CC2)cc1F (single isomer, unassigned) [Example 92]",350 nM,
390 nM,850 nM,,,,,"CC[C@@H]1CN(c2nc(=O)n(C)c3ccc(C#N)nc23)[C@@H](C)CN1C(C)c1ccc(OC(F)(F)F)cc1 (single isomer, unassigned) [Example 49]",2340 nM,
340 nM,760 nM,,,,,"CC[C@@H]1CN(c2nc(=O)n(C)c3ccc(C#N)nc23)[C@@H](C)CN1C(C)c1ccc(C2CC2)cc1 (single isomer, unassigned) [Example 64]",690 nM,
270 nM,54 nM,,,,,"CC[C@@H]1CN(c2nc(=O)n(C)c3ccc(C#N)nc23)[C@@H](C)CN1C(C)c1ccc(C(F)(F)F)cc1F (single isomer, unassigned) [Example 58]",22 nM,
160 nM,440 nM,,,,,"CC[C@H]1CN(C(c2ccc(F)cc2)c2ccc(C(F)(F)F)cn2)[C@H](C)CN1c1nc(=O)n(C)c2ccc(C#N)nc12 (stereo partly drawn) [Example 114, 4-((2S,5R)-2-ethyl-4-((4-fluorophenyl)(5-(trifluoromethyl)pyridin-2-yl)methyl)-5-methylpiperazin-1-yl)-1-methyl-2-oxo-1,2-dihydropyrido[3,2-d]pyrimidine-6-carbonitrile]",470 nM,
58 nM,220 nM,,,,,"CC[C@@H]1CN(c2nc(=O)n(C)c3ccc(C#N)nc23)[C@@H](C)CN1Cc1ccc(OC(F)(F)F)cc1F [Example 62, 4-((2S,5R)-5-ethyl-4-(2-fluoro-4-(trifluoromethoxy)benzyl)-2-methylpiperazin-1-yl)-1-methyl-2-oxo-1,2-dihydropyrido[3,2-d]pyrimidine-6-carbonitrile]",,200 nM
56 nM,1150 nM,,,,,"C[C@@H]1CN(c2nc(=O)n(C)c3ccc(C#N)nc23)[C@@H](C)CN1C(c1ccc(F)cc1)c1ccon1 (single isomer, unassigned) [Example 162]",1850 nM,
